Experimental data taken from patent publication EP0647618A1, “NEW NON IONIC IODINE-CONTAINING DIMERS USEFUL AS X-RAY CONTRAST AGENTS, METHOD FOR THE PREPARATION THEREOF, AND GALENICAL COMPOSITIONS CONTAINING THEM” (CENTRO INVESTIGACION JUSTESA IMAGEN S.A., priority 1993, dated 1994).
Read-outs that look alike come from different tables or passages of the source.

Experiments:
[1] = Viscosity of aqueous solution at 300 mg I/ml; type: physicochemical; settings: for VISCOSITY mPas (37°C) at 300 mg I/ml: 300 mg I/ml (Table II); for VISCOSITY 37°C mPa.s 300 mg I/ml: 300 mg I/ml (Table I)
physchem = type: physicochemical; settings: for solubility: water
Procedure: (§1) On the other hand, radiologists need compounds with a wide range of uses: for example, angiography, urography, myelography, cisternography, lymphography, cardiography and gastrography. The products according to this invention fulfil the requirements for the above uses, as they have high water solubility, normally higher than 60% (w/v), which, in some cases, is as high as 100% at 20°C, without showing any tendency to crystallize. They also have a very low general toxicity, stated as the average lethal dose for the rat, DL₅₀.

[2] = Osmolality of aqueous solution at 300 mg I/ml; type: physicochemical; settings: for OSMOLALITY mOsm/kg at 300 mg I/ml: 300 mg I/ml (Table II); for OSMOLALITY 37°C mOsm/kg at 300 mg I/ml: 300 mg I/ml (Table I)
RAT = experiment: General toxicity, average lethal dose (DL50) in the rat, i.v.; type: in vivo
Procedure: as §1

[3] = 20°C (Table II), read-out: SOLUBILITY IN WATER at 20°

## O=C(CN(CC(=O)Nc1c(I)c(C(=O)NCC(O)CO)c(I)c(C(=O)NCC(O)CO)c1I)CC(O)CO)Nc1c(I)c(C(=O)NCC(O)CO)c(I)c(C(=O)NCC(O)CO)c1I (stereo not drawn) [ICJ-1092, N,N'-Bis-{3,5-bis-[N-(2,3-dihydroxypropyl)carbamoyl]-2,4,6-triiodophenyl}-3-(2,3-dihydroxypropyl)-3-azapentanediamide]
[1]
  VISCOSITY mPas (37°C) at 300 mg I/ml: 10.3 mPas
physchem; [3]
  solubility: > 600 mg/mL
[2]
  OSMOLALITY mOsm/kg at 300 mg I/ml: 193 mOsm/kg

## O=C(CN(CCO)CC(=O)Nc1c(I)c(C(=O)NCC(O)CO)c(I)c(C(=O)NCC(O)CO)c1I)Nc1c(I)c(C(=O)NCC(O)CO)c(I)c(C(=O)NCC(O)CO)c1I (stereo not drawn) [ICJ-1192, N,N'-Bis-{3,5-bis-[N-(2,3-dihydroxypropyl)carbamoyl]-2,4,6-triiodophenyl}-3-(2-hydroxyethyl)-3-azapentanediamide]
[1]
  VISCOSITY 37°C mPa.s 300 mg I/ml: 9.4 mPa.s
  VISCOSITY mPas (37°C) at 300 mg I/ml: 9.4 mPas
physchem; 20°C (Table II)
  SOLUBILITY IN WATER at 20°: > 60%
physchem; 20°C (Table I), read-out: SOLUBILITY in water at 20°C (w/v)
  solubility: > 600 mg/mL
RAT
  DL50 (RAT) via i.v. g I/kg: > 25 g I/kg
[2]
  OSMOLALITY mOsm/kg at 300 mg I/ml: 167 mOsm/kg
  OSMOLALITY 37°C mOsm/kg at 300 mg I/ml: 167 mOsm/kg

## O=C(CN(CCO)CC(=O)Nc1c(I)c(C(=O)NCC(O)CO)c(I)c(C(=O)NCC(O)CO)c1I)Nc1c(I)c(C(=O)NCCO)c(I)c(C(=O)NCCO)c1I (stereo not drawn) [ICJ-1292, N-{3,5-Bis-[N-(2,3-dihydroxypropyl)carbamoyl]-2,4,6-triiodophenyl}-N'-{3,5-bis-[N-(2-hydroxyethyl)carbamoyl]-2,4,6-triiodophenyl}-3-(2-hydroxyethyl)-3-azapentanediamide]
physchem; [3]
  solubility: < 600 mg/mL

## O=C(CN(CCO)CC(=O)Nc1c(I)c(C(=O)NCCO)c(I)c(C(=O)NCCO)c1I)Nc1c(I)c(C(=O)NCCO)c(I)c(C(=O)NCCO)c1I [ICJ-1392, N,N'-Bis-{3,5-bis-[N-(2-hydroxyethyl)carbamoyl]-2,4,6-triiodophenyl}-3-(2-hydroxyethyl)-3-azapentanedimide]
physchem; [3]
  solubility: < 600 mg/mL

## O=C(CN(CC(=O)Nc1c(I)c(C(=O)NCC(O)CO)c(I)c(C(=O)NCC(O)CO)c1I)CC(O)CO)Nc1c(I)c(C(=O)NCCO)c(I)c(C(=O)NCCO)c1I (stereo not drawn) [ICJ-1492, N-{3,5-bis-[N-(2,3-dihydroxypropyl)carbamoyl]-2,4,6-triiodophenyl}-N'-{3,5-bis-[N-(2-hydroxyethyl)carbamoyl]-2,4,6-triiodophenyl)-3-(2,3-dihydroxypropyl)-3-azapentanediamide]
[1]
  VISCOSITY mPas (37°C) at 300 mg I/ml: 9.5 mPas
physchem; [3]
  solubility: < 600 mg/mL
[2]
  OSMOLALITY mOsm/kg at 300 mg I/ml: 137 mOsm/kg

## O=C(CN(CCO)CC(=O)Nc1c(I)c(C(=O)NC(CO)C(O)CO)c(I)c(C(=O)NC(CO)C(O)CO)c1I)Nc1c(I)c(C(=O)NCCO)c(I)c(C(=O)NCCO)c1I (stereo not drawn) [ICJ-1592]
[1]
  VISCOSITY 37°C mPa.s 300 mg I/ml: 8.4 mPa.s
  VISCOSITY mPas (37°C) at 300 mg I/ml: 8.4 mPas
physchem
  SOLUBILITY IN WATER at 20°: > 60%
  solubility: > 600 mg/mL
RAT
  DL50 (RAT) via i.v. g I/kg: > 20 g I/kg
[2]
  OSMOLALITY mOsm/kg at 300 mg I/ml: 151 mOsm/kg
  OSMOLALITY 37°C mOsm/kg at 300 mg I/ml: 151 mOsm/kg

## CN(C(=O)CN(CCO)CC(=O)Nc1c(I)c(C(=O)NCC(O)CO)c(I)c(C(=O)NCC(O)CO)c1I)c1c(I)c(C(=O)NCC(O)CO)c(I)c(C(=O)NCC(O)CO)c1I (stereo not drawn) [ICJ-1792, N,N'-Bis-{3,5-bis-[N-(2,3-dihydroxypropyl)carbamoyl]-2,4,6-triiodophenyl}-N-methyl-3-(2-hydroxyethyl)-3-azapentanediamide]
[1]
  VISCOSITY mPas (37°C) at 300 mg I/ml: 10.6 mPas
physchem; [3]
  solubility: > 600 mg/mL
[2]
  OSMOLALITY mOsm/kg at 300 mg I/ml: 157 mOsm/kg

## CN(C(=O)CN(CCO)CC(=O)Nc1c(I)c(C(=O)NCCO)c(I)c(C(=O)NCCO)c1I)c1c(I)c(C(=O)NC(CO)C(O)CO)c(I)c(C(=O)NC(CO)C(O)CO)c1I (stereo not drawn) [ICJ-1892, N{3,5-Bis-[N-(1-hydroxymethyl-2,3-dihydroxypropyl)carbamoyl]-2,4,6-triiodophenyl}-N-methyl-N'-{3,5-bis-[N-(2-hydroxyethyl)carbamoyl]-2,4,6-triiodophenyl}-3-(2-hydroxyethyl)-3-azapentanediamide]
[1]
  VISCOSITY mPas (37°C) at 300 mg I/ml: 9.7 mPas
physchem; [3]
  solubility: > 600 mg/mL
[2]
  OSMOLALITY mOsm/kg at 300 mg I/ml: 133 mOsm/kg

## CN(C(=O)CN(CCO)CC(=O)Nc1c(I)c(C(=O)NC(CO)C(O)CO)c(I)c(C(=O)NC(CO)C(O)CO)c1I)c1c(I)c(C(=O)NCCO)c(I)c(C(=O)NCCO)c1I (stereo not drawn) [ICJ-1992, N-{3,5-Bis-[N-(1-hydroxymethyl-2,3-dihydroxypropyl)carbamoyl]-2,4,6-triiodophenyl}-N'-methyl-N'-{3,5-bis-[N-(2-hydroxyethyl)carbamoyl]-2,4,6-triiodophenyl}-3-(2-hydroxyethyl)-3-azapentanediamide]
[1]
  VISCOSITY mPas (37°C) at 300 mg I/ml: 9.1 mPas
physchem; [3]
  solubility: > 600 mg/mL
[2]
  OSMOLALITY mOsm/kg at 300 mg I/ml: 164 mOsm/kg

## CN(C(=O)CN(CCO)CC(=O)N(C)c1c(I)c(C(=O)NC(CO)C(O)CO)c(I)c(C(=O)NC(CO)C(O)CO)c1I)c1c(I)c(C(=O)NCCO)c(I)c(C(=O)NCCO)c1I (stereo not drawn) [ICJ-2092, N-{3,5-Bis-[N-(1-hydroxymethyl-2,3-dihydroxypropyl)carbamoyl]-2,4,6-triiodophenyl}-N'-{3,5-bis-[N-(2-hydroxyethyl)carbamoyl]-2,4,6-triiodophenyl}-N,N'-dimethyl-3-(2-hydroxyethyl)-3-azapentanediamide]
[1]
  VISCOSITY mPas (37°C) at 300 mg I/ml: 9.5 mPas
physchem; [3]
  solubility: > 600 mg/mL
[2]
  OSMOLALITY mOsm/kg at 300 mg I/ml: 188 mOsm/kg

## CN(C(=O)CN(CCO)CC(=O)Nc1c(I)c(C(=O)NCC(O)CO)c(I)c(C(=O)NCC(O)CO)c1I)c1c(I)c(C(=O)NCCO)c(I)c(C(=O)NCCO)c1I (stereo not drawn) [ICJ-2192, N-{3,5-Bis-[N-(2,3-dihydroxpropyl)carbamoyl]-2,4,6-triiodophenyl}-N'-methyl-N'-{3,5-bis-[N-(2-hydroxyethyl)carbamoyl]-2,4,6-triiodophenyl}-3-(2-hydroxyethyl)-3-azapentanediamide]
physchem; [3]
  solubility: < 600 mg/mL

## CN(C(=O)CN(CCO)CC(=O)N(C)c1c(I)c(C(=O)NCC(O)CO)c(I)c(C(=O)NCC(O)CO)c1I)c1c(I)c(C(=O)NCCO)c(I)c(C(=O)NCCO)c1I (stereo not drawn) [ICJ-2292, N-{3,5-Bis-[N-(2,3-dihydroxypropyl)carbamoyl]-2,4,6-triiodophenyl}-N'-{3,5-bis-[N-(2-hydroxyethyl)carbamoyl]-2,4,6-triiodophenyl}-N,N'-dimethyl-3-(2-hydroxyethyl)-3-azapentanediamide]
[1]
  VISCOSITY mPas (37°C) at 300 mg I/ml: 11.0 mPas
physchem; [3]
  solubility: > 600 mg/mL
[2]
  OSMOLALITY mOsm/kg at 300 mg I/ml: 162 mOsm/kg

## CN(C(=O)CN(CCO)CC(=O)N(C)c1c(I)c(C(=O)NCCO)c(I)c(C(=O)NCCO)c1I)c1c(I)c(C(=O)NCCO)c(I)c(C(=O)NCCO)c1I [ICJ-2392, N,N'-Bis-{3,5-bis-[N-(2-hydroxethyl)carbamoyl]-2,4,6-triiodophenyl}-N,N'-dimethyl-3-(2-hydroxyethyl)-3-azapentanedimide]
physchem; [3]
  solubility: < 600 mg/mL

## CN(C(=O)CN(CCO)CC(=O)Nc1c(I)c(C(=O)NCCO)c(I)c(C(=O)NCCO)c1I)c1c(I)c(C(=O)NCC(O)CO)c(I)c(C(=O)NCC(O)CO)c1I (stereo not drawn) [ICJ-2492, N-{3,5-Bis-[N-(2,3-dihydroxpropyl)carbamoyl]-2,4,6-triiodophenyl}-N-methyl-N'-{3,5-bis-[N-(2-hydroxyethyl)carbamoyl]-2,4,6-triiodophenyl}-3-(2-hydroxyethyl)-3-azapentanediamide]
physchem; [3]
  solubility: < 600 mg/mL

## O=C(CN(CC(=O)Nc1c(I)c(C(=O)NCCO)c(I)c(C(=O)NCCO)c1I)C(CO)C(O)CO)Nc1c(I)c(C(=O)NCCO)c(I)c(C(=O)NCCO)c1I (stereo not drawn) [ICJ-2592, N,N'-Bis-{3,5-bis-[N-(2-hydroxyethyl)carbamoyl]-2,4,6-triiodophenyl}-3-(1-hydroxymethyl-2,3-dihydroxypropyl)-3-azapentanediamide]
[1]
  VISCOSITY mPas (37°C) at 300 mg I/ml: 9.1 mPas
physchem; [3]
  solubility: > 600 mg/mL
[2]
  OSMOLALITY mOsm/kg at 300 mg I/ml: 180 mOsm/kg

## COCCN(CC(=O)Nc1c(I)c(C(=O)NCC(O)CO)c(I)c(C(=O)NCC(O)CO)c1I)CC(=O)Nc1c(I)c(C(=O)NCC(O)CO)c(I)c(C(=O)NCC(O)CO)c1I (stereo not drawn) [ICJ-2692, N,N'-Bis-{3,5-bis-[N-(2,3-dihydroxypropyl)carbamoyl]-2,4,6-triiodophenyl}-3-(2-methoxyethyl)-3-azapentanediamide]
[1]
  VISCOSITY mPas (37°C) at 300 mg I/ml: 9.7 mPas
physchem; [3]
  solubility: > 600 mg/mL
[2]
  OSMOLALITY mOsm/kg at 300 mg I/ml: 185 mOsm/kg

## CN(CC(=O)Nc1c(I)c(C(=O)NCC(O)CO)c(I)c(C(=O)NCC(O)CO)c1I)CC(=O)Nc1c(I)c(C(=O)NCC(O)CO)c(I)c(C(=O)NCC(O)CO)c1I (stereo not drawn) [ICJ-2792, N,N'-Bis-{3,5-bis-[N-(2,3-dihydroxypropyl)carbamoyl]-2,4,6-triiodophenyl}-3-methyl-3-azapentanediamide]
physchem; [3]
  solubility: < 600 mg/mL

## COCCN(CC(=O)N(C)c1c(I)c(C(=O)NCC(O)CO)c(I)c(C(=O)NCC(O)CO)c1I)CC(=O)N(C)c1c(I)c(C(=O)NCC(O)CO)c(I)c(C(=O)NCC(O)CO)c1I (stereo not drawn) [ICJ-2892, N,N'-Bis-{3,5-bis-[N-(2,3-dihydroxypropyl)carbamoyl]-2,4,6-triiodophenyl}-N,N'-dimethyl-3-(2-methoxymethyl)-3-azapentanediamide]
[1]
  VISCOSITY mPas (37°C) at 300 mg I/ml: 10.8 mPas
physchem; [3]
  solubility: > 600 mg/mL
[2]
  OSMOLALITY mOsm/kg at 300 mg I/ml: 200 mOsm/kg

## CN(CC(=O)N(C)c1c(I)c(C(=O)NCC(O)CO)c(I)c(C(=O)NCC(O)CO)c1I)CC(=O)N(C)c1c(I)c(C(=O)NCC(O)CO)c(I)c(C(=O)NCC(O)CO)c1I (stereo not drawn) [ICJ-2992, N,N'-Bis-{3,5-bis-[N-(2,3-dihydroxypropyl)carbamoyl]-2,4,6-triiodophenyl}-N,N'-dimethyl-3-methyl-3-azapentanediamide]
physchem; [3]
  solubility: > 600 mg/mL
